From patent US8247423B2, “Methods and compositions for the treatment of cancer, tumors, and tumor-related disorders” (Tragara Pharmaceuticals, Inc., priority 2007, dated 2012)

Experiment: clinical
Details: human, in vivo, po
Method: Methods: Subjects with recurrent or metastatic NSCLC were treated with erlotinib (150 mg/day PO) and escalating doses of 2-(4-ethoxyphenyl)-4-methyl-1-(4-sulfamoylphenyl)-pyrrole (100-1200 mg/day PO). Pharmacokinetics for 2-(4-ethoxyphenyl)-4-methyl-1-(4-sulfamoylphenyl)-pyrrole and erlotinib were evaluated.

## CCOc1ccc(-c2cc(C)cn2-c2ccc(S(N)(=O)=O)cc2)cc1
  Tmax: 2 h
  half-life: 11.8 h
